Columns and labels:
Type in all cases: in vivo
[1] = system: Oryza sativa subsp. japonica; assay: Greenhouse herbicidal activity and crop safety comparison (Test Example 2)
Excerpt: (§1) Pre-emergence: Seeds of gramineous weeds (Echinochloa crusgalli, Echinochloa crusgalli var. zelayensis, Echinochloa phyllopogon, Eleusine indica, Digitaria sanguinalis, Leptochloa chinensis, Setaria viridis, Alopecurus japonicus Steud, Beckmannia syzigachne, Polypogon fugax, Alopecurus aequalis, Lolium multiflorum, Poa annua, Aegilops tataschii, Avena fatua, Alopecurus myosuroides, Bromus japonicus), broadleaf weeds (Eclipta prostrata, Amaranthus retroflexus, Rorippa indica, Myosoton aquaticum, Veronica didyma, Galium aparine, Solanum nigrum, Xanthium sibiricum, Conyza canadensis, Sesbania cannabina, Sagittaria trifolia), and Cyperus iria (Cyperus iria, Scirpus juncoides, Cyperus difformis, etc.) were sown in plastic pots (7 cm diameter) with nutrient soil and bottom holes. Crop seeds (including Oryza sativa subsp. indica, Oryza sativa subsp. japonica, Oryza sativa L. var. Glutinosa matsum, Triticum aestivum, Zea mays, Sorghum bicolor, Setaria italica, Glycine max, Gossypium hirsutum, Brassica napus, Arachis hypogaea) were sown in plastic pots (10 cm diameter) with nutrient soil and bottom holes. After sowing, the seeds were lightly covered with soil, and the soil was moistened via bottom water absorption. The pots were placed in a constant-temperature light-controlled growth chamber for 24 hours before soil spraying. Spraying was performed using a 3WP-2000 walking-type spray tower (produced by the Nanjing Agricultural Mechanization Institute, Ministry of Agriculture) with a spindle speed of 96 mm/r, spray height of 300 mm, effective spray width of 350 mm, spray area of 0.35 m^2, and nozzle flow rate of 390 mL/min.
(§2) After treatment, the test materials were air-dried naturally in the laboratory and then transferred to the growth chamber. Results were assessed 14-30 days later.
(§3) Post-emergence: Seeds of gramineous weeds (Echinochloa crusgalli, Echinochloa crusgalli var. zelayensis, Echinochloa phyllopogon, Eleusine indica, Digitaria sanguinalis, Leptochloa chinensis, Setaria viridis, Alopecurus japonicus Steud, Beckmannia syzigachne, Polypogon fugax, Alopecurus aequalis, Lolium multiflorum, Poa annua, Aegilops tataschii, Avena fatua, Alopecurus myosuroides, Bromus japonicus), broadleaf weeds (Eclipta prostrata, Amaranthus retroflexus, Rorippa indica, Myosoton aquaticum, Veronica didyma, Galium aparine, Solanum nigrum, Xanthium sibiricum, Conyza canadensis, Sesbania cannabina, Sagittaria trifolia), and Cyperus iria (Cyperus iria, Scirpus juncoides, Cyperus difformis, etc.) were sown in plastic pots (7 cm diameter) with nutrient soil and bottom holes. Crop seeds (including Oryza sativa subsp. indica, Oryza sativa subsp. japonica, Oryza sativa L. var. Glutinosa matsum, Triticum aestivum, Zea mays, Sorghum bicolor, Setaria italica, Glycine max, Gossypium hirsutum, Brassica napus, Arachis hypogaea) were sown in plastic pots (10 cm diameter) with nutrient soil and bottom holes. After sowing, the pots were placed in the growth chamber until the plants reached the 3-6 leaf stage for foliar spraying. Post-treatment, the materials were air-dried naturally and returned to the growth chamber. Results were assessed 14-21 days later.
(§4) • A: Fresh weight inhibition rate≥80% to 100%; • B: Fresh weight inhibition rate[…] to <80%; • C: Fresh weight inhibition rate≥40% to <60%; • D: Fresh weight inhibition rate≥20% to <40%; • E: Fresh weight inhibition rate<20%; • NT: Not tested.
(§5) Using the above method, the herbicidal activity and crop safety of the present compounds were compared with structurally similar known compounds (CK1, CK2, CK3, CK4: compounds 4-756, 4-759, 1-557, 1-563 from WO2012028579A1; CK5: compound 290-1 from WO2013087577A1; CK6: compound 1-129 from WO2011035874A1).

Echinochloa crusgalli [2] = assay: as above
Excerpt: as §1, §2, §3, §4, §5

[3] = system: Oryza sativa subsp. indica; assay: as above
Excerpt: as §1, §2, §3, §4, §5

Echinochloa crusgalli [4] = assay: Greenhouse herbicidal activity assay, post-emergence; conditions: Post-emergence test, rate 150 g a.i./hm^2; grade by fresh weight inhibition rate
Procedure, shortened: (§6)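 Weeds and crops grown in pots of nutrient soil in a growth chamber to the 3-6 leaf stage, then foliar-sprayed and air-dried. Fresh weight inhibition scored 14-21 days after treatment and graded A (≥80%) through E (<20%).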

Cyperus iria = assay: as above; conditions: Post-emergence test, rate 150 g a.i./hm^2; grade by fresh weight inhibition rate
Procedure, shortened: as §6

Digitaria sanguinalis = assay: as above; conditions: Post-emergence test, rate 150 g a.i./hm^2; grade by fresh weight inhibition rate
Procedure, shortened: as §6

Eclipta prostrata = assay: as above; conditions: Post-emergence test, rate 150 g a.i./hm^2; grade by fresh weight inhibition rate
Procedure, shortened: as §6

Leptochloa chinensis [5] = assay: as above; conditions: Post-emergence test, rate 150 g a.i./hm^2; grade by fresh weight inhibition rate
Procedure, shortened: as §6

Leptochloa chinensis [6] = assay: Greenhouse herbicidal activity and crop safety comparison (Test Example 2); conditions: Rate 150 g/ha
Excerpt: as §1, §2, §3, §4, §5

Cn1nnnc1NC(=O)c1ccc(S(C)(=O)=O)c(S(=O)(=O)C2CC2)c1Cl [Compound 1-36] was tested, and the “Oryza sativa subsp. japonica, grading of fresh weight inhibition rate (crop safety)” value ([1]; Rate 150 g/ha) was “E (Fresh weight inhibition rate<20%)”, the “Echinochloa crusgalli, control efficacy grading (fresh weight inhibition rate)” value (Echinochloa crusgalli [2]; Rate 150 g/ha) was “A (Fresh weight inhibition rate≥80% to 100%)” and the “Oryza sativa subsp. indica, grading of fresh weight inhibition rate (crop safety)” value ([3]; Rate 150 g/ha) was “E (Fresh weight inhibition rate<20%)”. For the same molecule, the “Control efficacy grade, Echinochloa crusgalli” value (Echinochloa crusgalli [4]) was “A (Fresh weight inhibition rate≥80% to 100%)”, the “Control efficacy grade, Cyperus iria” value (Cyperus iria) was “A (Fresh weight inhibition rate≥80% to 100%)” and the “Control efficacy grade, Digitaria sanguinalis” value (Digitaria sanguinalis) was “A (Fresh weight inhibition rate≥80% to 100%)”. The “Control efficacy grade, Eclipta prostrata” value (Eclipta prostrata) was “A (Fresh weight inhibition rate≥80% to 100%)” and the “Control efficacy grade, Leptochloa chinensis” value (Leptochloa chinensis [5]) was “A (Fresh weight inhibition rate≥80% to 100%)”.
C=CCS(=O)(=O)c1c(S(C)(=O)=O)ccc(C(=O)Nc2nnnn2C)c1Cl [Compound 1-71] was tested, and the “Oryza sativa subsp. japonica, grading of fresh weight inhibition rate (crop safety)” value ([1]; Rate 250 g/ha) was “E (Fresh weight inhibition rate<20%)”, the “Echinochloa crusgalli, control efficacy grading (fresh weight inhibition rate)” value (Echinochloa crusgalli [2]; Rate 250 g/ha) was “A (Fresh weight inhibition rate≥80% to 100%)” and the “Oryza sativa subsp. indica, grading of fresh weight inhibition rate (crop safety)” value ([3]; Rate 250 g/ha) was “E (Fresh weight inhibition rate<20%)”. The “Control efficacy grade, Echinochloa crusgalli” value (Echinochloa crusgalli [4]) was “A (Fresh weight inhibition rate≥80% to 100%)”, the “Control efficacy grade, Cyperus iria” value (Cyperus iria) was “A (Fresh weight inhibition rate≥80% to 100%)” and the “Control efficacy grade, Digitaria sanguinalis” value (Digitaria sanguinalis) was “A (Fresh weight inhibition rate≥80% to 100%)”. The “Control efficacy grade, Eclipta prostrata” value (Eclipta prostrata) was “A (Fresh weight inhibition rate≥80% to 100%)” and the “Control efficacy grade, Leptochloa chinensis” value (Leptochloa chinensis [5]) was “A (Fresh weight inhibition rate≥80% to 100%)”.
In the case of Cc1nnc(NC(=O)c2ccc(S(C)(=O)=O)c(S(=O)(=O)CCCl)c2Cl)o1 [Compound 3-216], the “Oryza sativa subsp. japonica, grading of fresh weight inhibition rate (crop safety)” value ([1]; Rate 150 g/ha) is reported as “E (Fresh weight inhibition rate<20%)”, the “Oryza sativa subsp. indica, grading of fresh weight inhibition rate (crop safety)” value ([3]; Rate 150 g/ha) is reported as “E (Fresh weight inhibition rate<20%)” and the “Leptochloa chinensis, control efficacy grading (fresh weight inhibition rate)” value (Leptochloa chinensis [6]) is reported as “A (Fresh weight inhibition rate≥80% to 100%)”. The “Control efficacy grade, Leptochloa chinensis” value (Leptochloa chinensis [5]) was “A (Fresh weight inhibition rate≥80% to 100%)”.
CC(C)c1nnc(NC(=O)c2ccc(S(C)(=O)=O)c(S(=O)(=O)C3CCC3)c2Cl)o1 [Compound 3-544] was tested, and the “Oryza sativa subsp. japonica, grading of fresh weight inhibition rate (crop safety)” value ([1]; Rate 150 g/ha) was “E (Fresh weight inhibition rate<20%)”, the “Oryza sativa subsp. indica, grading of fresh weight inhibition rate (crop safety)” value ([3]; Rate 150 g/ha) was “E (Fresh weight inhibition rate<20%)” and the “Leptochloa chinensis, control efficacy grading (fresh weight inhibition rate)” value (Leptochloa chinensis [6]) was “A (Fresh weight inhibition rate≥80% to 100%)”. The “Control efficacy grade, Echinochloa crusgalli” value (Echinochloa crusgalli [4]) was “B (Fresh weight inhibition rate≥260% to <80%)”, the “Control efficacy grade, Cyperus iria” value (Cyperus iria) was “A (Fresh weight inhibition rate≥80% to 100%)” and the “Control efficacy grade, Eclipta prostrata” value (Eclipta prostrata) was “A (Fresh weight inhibition rate≥80% to 100%)”. For the same molecule, the “Control efficacy grade, Leptochloa chinensis” value (Leptochloa chinensis [5]) was “A (Fresh weight inhibition rate≥80% to 100%)”.
With CC(C)c1nnc(NC(=O)c2ccc(S(C)(=O)=O)c(S(=O)(=O)C3CCCC3)c2Cl)o1 [Compound 3-549] the “Oryza sativa subsp. japonica, grading of fresh weight inhibition rate (crop safety)” value ([1]; Rate 150 g/ha) was “E (Fresh weight inhibition rate<20%)”, the “Oryza sativa subsp. indica, grading of fresh weight inhibition rate (crop safety)” value ([3]; Rate 150 g/ha) was “E (Fresh weight inhibition rate<20%)” and the “Leptochloa chinensis, control efficacy grading (fresh weight inhibition rate)” value (Leptochloa chinensis [6]) was “A (Fresh weight inhibition rate≥80% to 100%)”. For the same molecule, the “Control efficacy grade, Cyperus iria” value (Cyperus iria) was “A (Fresh weight inhibition rate≥80% to 100%)”, the “Control efficacy grade, Eclipta prostrata” value (Eclipta prostrata) was “A (Fresh weight inhibition rate≥80% to 100%)” and the “Control efficacy grade, Leptochloa chinensis” value (Leptochloa chinensis [5]) was “A (Fresh weight inhibition rate≥80% to 100%)”.
CS(=O)(=O)c1ccc(C(=O)Nc2nnc(C3CC3)o2)c(Cl)c1S(=O)(=O)C1CCCC1 [Compound 3-665] was tested, and the “Oryza sativa subsp. japonica, grading of fresh weight inhibition rate (crop safety)” value ([1]; Rate 150 g/ha) was “E (Fresh weight inhibition rate<20%)”, the “Oryza sativa subsp. indica, grading of fresh weight inhibition rate (crop safety)” value ([3]; Rate 150 g/ha) was “E (Fresh weight inhibition rate<20%)” and the “Leptochloa chinensis, control efficacy grading (fresh weight inhibition rate)” value (Leptochloa chinensis [6]) was “A (Fresh weight inhibition rate≥80% to 100%)”. The “Control efficacy grade, Cyperus iria” value (Cyperus iria) was “B (Fresh weight inhibition rate≥260% to <80%)”, the “Control efficacy grade, Eclipta prostrata” value (Eclipta prostrata) was “A (Fresh weight inhibition rate≥80% to 100%)” and the “Control efficacy grade, Leptochloa chinensis” value (Leptochloa chinensis [5]) was “A (Fresh weight inhibition rate≥80% to 100%)”.

Source: patent publication US20250223268A1, “4-Methylsulfonylbenzamide Compound, Preparation Method, Herbicidal Composition And Use” (Jiangsu Flag Chemical Industry Co., Ltd., priority 2022, published 2025)
